Columns and labels:
[1] = system: Radical scavenging activity; assay: Antioxidant activity assessed as DPPH radical scavenging activity; type: functional; parameters: concentration or dose not given beside the values
[2] = Antioxidant activity assessed as inhibition of photoreduction of nitro blue tetrazolium after 7 mins by SOD activity assay; type: functional; parameters: concentration or dose not given beside the values

With `Brc1cncc(SC23CC4CC(CC(C4)C2)C3)c1` the Activity [1] was 17.1% and the inhibition [2] was 53.3%.
Compound `Oc1ccc(SC23CC4CC(CC(C4)C2)C3)nc1` has an Activity [1] of 0.3% and an inhibition [2] of 45.5%.
For `NC(=O)c1cccnc1SC12CC3CC(CC(C3)C1)C2`, the Activity [1] was 0.57% and the inhibition [2] was 15.4%.
`CCOc1cccnc1SC12CC3CC(CC(C3)C1)C2` showed an Activity [1] of 14.2% and an inhibition [2] of 31.8%.
With `CC(=O)N(C(C)=O)c1cccnc1SC12CC3CC(CC(C3)C1)C2` the Activity [1] was 17.7%.
Work on `CC(=O)Oc1cccnc1SC12CC3CC(CC(C3)C1)C2` yielded an Activity [1] of 7.03% and an inhibition [2] of 16.8%.
For `N#Cc1cccnc1SC12CC3CC(CC(C3)C1)C2`, the Activity [1] was 0.3% and the inhibition [2] was 17.3%.
For `O=C(O)c1cccnc1SC12CC3CC(CC(C3)C1)C2`, the Activity [1] was 33.2% and the inhibition [2] was 15.4%.
`Brc1cccnc1SC12CC3CC(CC(C3)C1)C2` showed an Activity [1] of 21.1% and an inhibition [2] of 17.2%.
